Paper PMC5557014 (Biochemical pharmacology, 2017)
Read-outs that look alike come from different tables or passages of the source.

Tests used:
[1] = target: T1, HIV-1 RT (Human immunodeficiency virus type 1 group M subtype B, UniProt P04585); assay: HIV-1 RT assay with homopolymeric template/primers; assay type: biochemical
[2] = target: T2, HSV-1 DNA polymerase (Human herpesvirus 1, UniProt P04293); assay: HSV-1 DNA polymerase enzyme assay; assay type: biochemical; details: calf thymus DNA
[3] = target: T3, HCMV DNA polymerase (Human cytomegalovirus, UniProt P08546); assay: HCMV DNA polymerase enzyme assay; assay type: biochemical; details: calf thymus DNA
[4] = target: T4, cellular DNA polymerase α (Homo sapiens, UniProt P09884); assay: Cellular DNA polymerase α assay; assay type: biochemical
T4 sequence (P09884 1-1462): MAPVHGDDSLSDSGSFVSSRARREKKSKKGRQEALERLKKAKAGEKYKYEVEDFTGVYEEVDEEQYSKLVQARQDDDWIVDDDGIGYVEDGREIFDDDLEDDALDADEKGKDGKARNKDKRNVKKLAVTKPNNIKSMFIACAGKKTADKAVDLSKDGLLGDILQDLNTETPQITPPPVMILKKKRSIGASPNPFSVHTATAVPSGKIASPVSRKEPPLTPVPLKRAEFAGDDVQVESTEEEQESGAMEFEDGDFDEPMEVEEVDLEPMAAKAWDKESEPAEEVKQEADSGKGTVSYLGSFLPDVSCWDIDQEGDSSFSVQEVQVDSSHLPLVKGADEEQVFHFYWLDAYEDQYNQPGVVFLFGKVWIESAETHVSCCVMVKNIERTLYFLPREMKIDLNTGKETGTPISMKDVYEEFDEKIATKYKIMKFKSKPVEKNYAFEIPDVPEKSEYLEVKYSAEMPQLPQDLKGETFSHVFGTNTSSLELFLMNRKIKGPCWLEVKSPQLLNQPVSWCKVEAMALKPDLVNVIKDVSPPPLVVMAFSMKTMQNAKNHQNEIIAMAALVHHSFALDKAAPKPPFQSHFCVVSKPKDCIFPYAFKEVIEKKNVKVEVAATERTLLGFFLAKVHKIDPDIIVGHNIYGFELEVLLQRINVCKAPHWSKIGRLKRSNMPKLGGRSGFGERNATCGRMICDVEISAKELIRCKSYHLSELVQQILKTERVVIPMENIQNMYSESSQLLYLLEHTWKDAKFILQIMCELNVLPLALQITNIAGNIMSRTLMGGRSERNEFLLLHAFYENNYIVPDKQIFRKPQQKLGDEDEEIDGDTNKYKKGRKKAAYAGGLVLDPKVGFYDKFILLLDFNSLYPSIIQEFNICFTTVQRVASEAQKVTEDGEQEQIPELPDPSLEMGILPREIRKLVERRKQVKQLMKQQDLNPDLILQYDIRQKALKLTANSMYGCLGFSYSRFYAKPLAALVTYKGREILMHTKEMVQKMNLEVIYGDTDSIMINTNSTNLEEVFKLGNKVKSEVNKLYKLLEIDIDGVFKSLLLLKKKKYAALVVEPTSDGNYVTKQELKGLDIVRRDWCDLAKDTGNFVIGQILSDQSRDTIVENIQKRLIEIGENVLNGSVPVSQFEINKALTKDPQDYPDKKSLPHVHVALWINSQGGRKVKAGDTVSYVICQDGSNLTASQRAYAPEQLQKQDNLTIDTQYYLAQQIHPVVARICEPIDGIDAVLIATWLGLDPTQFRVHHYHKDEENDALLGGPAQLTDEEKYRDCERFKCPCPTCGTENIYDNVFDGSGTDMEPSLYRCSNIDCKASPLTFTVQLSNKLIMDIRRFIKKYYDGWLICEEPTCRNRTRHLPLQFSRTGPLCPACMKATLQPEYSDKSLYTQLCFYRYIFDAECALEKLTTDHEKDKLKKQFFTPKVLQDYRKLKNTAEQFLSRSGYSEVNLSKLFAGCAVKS

[5] = target: cellular DNA polymerase β (Homo sapiens, UniProt P06746); assay: Cellular DNA polymerase β assay; assay type: biochemical
[6] = target: T1, HIV-1 RT; assay: Gel-based HIV-1 RT-catalyzed DNA synthesis on heteropolymeric DNA; assay type: biochemical
[7] = target: T1, HIV-1 RT; assay: Site-specific Fe2+ footprinting, post-translocation trapping; assay type: binding
[8] = target: T1, HIV-1 RT; assay: Kinetic analysis of HIV-1 RT inhibition; assay type: biochemical
[9] = target: T2, HSV-1 DNA polymerase; assay: biochemical; assay type: biochemical; details: varying dGTP, calf thymus DNA
[10] = target: T3, HCMV DNA polymerase; assay: Kinetic analysis of HCMV DNA polymerase inhibition; assay type: biochemical; details: varying dGTP, calf thymus DNA
[11] = test system: HIV-1 RT F61A; assay: Mutant HIV-1 RT assay F61A; assay type: biochemical
[12] = test system: HIV-1 RT K65R; assay: Mutant HIV-1 RT assay K65R; assay type: biochemical
[13] = test system: HIV-1 RT K70E; assay: Mutant HIV-1 RT assay K70E; assay type: biochemical
[14] = test system: HIV-1 RT K70Q; assay: Mutant HIV-1 RT assay K70Q; assay type: biochemical
[15] = test system: HIV-1 RT K70R; assay: Mutant HIV-1 RT assay K70R; assay type: biochemical
[16] = test system: HIV-1 RT V75I; assay: Mutant HIV-1 RT assay V75I; assay type: biochemical
[17] = test system: HIV-1 RT Y115F; assay: Mutant HIV-1 RT assay Y115F; assay type: biochemical; details: Poly rC.dG [^3H]dGTP
[18] = test system: HIV-1 RT E138K; assay: Mutant HIV-1 RT assay E138K; assay type: biochemical
[19] = test system: HIV-1 RT Q151M; assay: Mutant HIV-1 RT assay Q151M; assay type: biochemical
[20] = test system: HIV-1 RT M184I; assay: Mutant HIV-1 RT assay M184I; assay type: biochemical
[21] = test system: HIV-1 RT M184V; assay: Mutant HIV-1 RT assay M184V; assay type: biochemical
[22] = test system: HIV-1 RT M184V + Y115F; assay: Mutant HIV-1 RT assay M184V + Y115F; assay type: biochemical
[23] = test system: HIV-1 RT M184V + E138K; assay: Mutant HIV-1 RT assay M184V + E138K; assay type: biochemical
[24] = test system: HIV-1 RT L100I
[25] = test system: HIV-1 RT K103N
[26] = test system: HIV-1 RT V106A
[27] = test system: HIV-1 RT Y181C
[28] = test system: HIV-1 RT M184I + E138K; assay: Mutant HIV-1 RT assay M184I + E138K; assay type: biochemical

T2 sequence (P04293 whole entry): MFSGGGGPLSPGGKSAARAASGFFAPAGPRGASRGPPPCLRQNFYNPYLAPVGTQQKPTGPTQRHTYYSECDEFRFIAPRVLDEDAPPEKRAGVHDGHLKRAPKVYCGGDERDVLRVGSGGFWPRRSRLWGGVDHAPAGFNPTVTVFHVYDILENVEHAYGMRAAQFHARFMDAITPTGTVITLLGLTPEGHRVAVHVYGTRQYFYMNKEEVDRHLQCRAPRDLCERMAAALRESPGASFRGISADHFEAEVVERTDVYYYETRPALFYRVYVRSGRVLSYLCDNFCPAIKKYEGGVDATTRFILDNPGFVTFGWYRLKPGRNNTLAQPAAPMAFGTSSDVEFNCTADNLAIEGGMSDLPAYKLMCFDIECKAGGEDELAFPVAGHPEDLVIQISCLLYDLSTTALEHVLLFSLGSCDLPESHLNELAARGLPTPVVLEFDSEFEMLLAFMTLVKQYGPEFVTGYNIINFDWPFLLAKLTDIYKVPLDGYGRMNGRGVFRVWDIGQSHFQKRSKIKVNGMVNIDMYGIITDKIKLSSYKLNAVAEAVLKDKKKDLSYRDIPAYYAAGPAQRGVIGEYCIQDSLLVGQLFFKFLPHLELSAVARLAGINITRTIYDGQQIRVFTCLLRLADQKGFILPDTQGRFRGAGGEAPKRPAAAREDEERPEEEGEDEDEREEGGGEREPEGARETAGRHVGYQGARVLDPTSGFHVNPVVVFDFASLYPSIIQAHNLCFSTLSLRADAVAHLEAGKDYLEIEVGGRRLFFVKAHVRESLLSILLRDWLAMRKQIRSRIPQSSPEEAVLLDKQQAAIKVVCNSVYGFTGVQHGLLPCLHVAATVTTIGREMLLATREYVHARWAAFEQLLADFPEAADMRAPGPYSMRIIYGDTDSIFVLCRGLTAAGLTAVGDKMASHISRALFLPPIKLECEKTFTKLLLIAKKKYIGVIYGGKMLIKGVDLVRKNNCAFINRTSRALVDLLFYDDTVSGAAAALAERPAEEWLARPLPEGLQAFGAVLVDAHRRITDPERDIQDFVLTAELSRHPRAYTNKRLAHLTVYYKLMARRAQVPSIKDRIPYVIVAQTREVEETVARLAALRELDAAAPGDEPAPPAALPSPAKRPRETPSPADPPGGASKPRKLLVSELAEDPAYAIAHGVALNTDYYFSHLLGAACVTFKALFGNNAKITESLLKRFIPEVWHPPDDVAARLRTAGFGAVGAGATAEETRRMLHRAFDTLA
T3 sequence (P08546 whole entry): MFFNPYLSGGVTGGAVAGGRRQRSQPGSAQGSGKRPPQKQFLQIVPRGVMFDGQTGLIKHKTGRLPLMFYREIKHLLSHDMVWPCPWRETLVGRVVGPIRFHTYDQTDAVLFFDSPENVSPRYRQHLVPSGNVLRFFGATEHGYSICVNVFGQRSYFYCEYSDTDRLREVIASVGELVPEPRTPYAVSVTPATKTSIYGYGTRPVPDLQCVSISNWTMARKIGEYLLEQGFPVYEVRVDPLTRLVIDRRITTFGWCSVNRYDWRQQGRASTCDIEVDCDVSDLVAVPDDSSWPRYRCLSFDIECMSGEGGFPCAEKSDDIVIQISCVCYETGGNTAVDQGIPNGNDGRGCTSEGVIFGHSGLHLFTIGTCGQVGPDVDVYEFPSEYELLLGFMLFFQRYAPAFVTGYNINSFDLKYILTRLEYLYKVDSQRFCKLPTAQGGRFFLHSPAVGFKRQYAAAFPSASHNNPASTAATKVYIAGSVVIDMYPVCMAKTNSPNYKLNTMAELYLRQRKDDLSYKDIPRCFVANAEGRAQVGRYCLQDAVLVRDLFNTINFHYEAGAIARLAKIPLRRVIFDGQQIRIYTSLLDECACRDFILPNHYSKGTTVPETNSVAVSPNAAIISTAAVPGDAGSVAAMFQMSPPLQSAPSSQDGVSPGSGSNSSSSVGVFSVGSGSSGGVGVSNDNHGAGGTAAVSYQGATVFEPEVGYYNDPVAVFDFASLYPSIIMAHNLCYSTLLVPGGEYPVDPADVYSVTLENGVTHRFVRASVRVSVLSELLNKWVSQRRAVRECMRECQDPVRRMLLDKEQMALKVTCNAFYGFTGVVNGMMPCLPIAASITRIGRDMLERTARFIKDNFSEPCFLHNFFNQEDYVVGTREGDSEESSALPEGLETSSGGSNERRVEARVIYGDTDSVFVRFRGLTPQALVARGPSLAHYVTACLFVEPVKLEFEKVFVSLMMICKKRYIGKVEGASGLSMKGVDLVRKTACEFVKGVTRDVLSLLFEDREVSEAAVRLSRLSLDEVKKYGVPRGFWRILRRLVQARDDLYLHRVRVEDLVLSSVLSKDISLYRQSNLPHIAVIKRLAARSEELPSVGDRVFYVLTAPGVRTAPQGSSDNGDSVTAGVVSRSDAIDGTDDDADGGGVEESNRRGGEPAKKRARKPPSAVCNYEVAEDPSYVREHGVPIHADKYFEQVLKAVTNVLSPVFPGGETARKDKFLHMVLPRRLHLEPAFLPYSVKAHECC

Structure (SMILES): Nc1nc2c(ncn2[C@@H]2CC[C@H](OC(C(=O)O)P(=O)(O)O)C2)c(=O)[nH]1 (mixture of isomers) [(L,D)-(±)G-α-CNP, cis-9-{4-[Carboxy(phosphono)methoxy]cyclopentan-1-yl}guanine]
- IC50 ([1]; IC50 HIV-1 RT, poly rA.dT, [^3H]dTTP): 536 µM
- IC50 ([1]; IC50 HIV-1 RT, poly rC.dG, [^3H]dGTP): 0.62 ± 0.19 µM
- IC50 ([2]; IC50 HSV-1 DNA pol, [^3H]dGTP): 8 ± 6 µM
- IC50 ([2]; IC50 HSV-1 DNA pol, [^3H]dTTP): 32 ± 11 µM
- IC50 ([3]; IC50 HCMV DNA pol, [^3H]dGTP): 9.4 ± 0.2 µM
- IC50 ([3]; IC50 HCMV DNA pol, [^3H]dTTP): 16 ± 8 µM
- IC50 [4]: 477 ± 83 µM
- IC50 [5]: 531 ± 5 µM
- IC50 [6]: 1.8 ± 1.1 µM
- EC50 [7]: 0.044 ± 0.002 µM
- Ki ([8]; competitive model, varying dGTP, poly rC.dG): 0.455 µM
- Ki ([8]; competitive model, varying poly rC.dG): 0.035 µM
- Ki ([8]; mixed model enzyme inhibition, varying dGTP, poly rC.dG): 0.944 µM
- Ki ([8]; mixed model enzyme inhibition, varying poly rC.dG): 0.832 µM
- Ki ([8]; non-competitive model, varying dGTP, poly rC.dG): 1.3 µM
- Ki ([8]; non-competitive model, varying poly rC.dG): 0.169 µM
- Most likely mode of inhibition ([8]; varying dGTP, poly rC.dG): Competitive
- α (alpha-value), mixed model enzyme inhibition ([8]; varying dGTP, poly rC.dG): 1.799
- Most likely mode of inhibition ([8]; varying poly rC.dG): Non-competitive
- α (alpha-value), mixed model enzyme inhibition ([8]; varying poly rC.dG): 0.147
- Ki ([9]; competitive model): 0.521 µM
- Ki ([9]; mixed model enzyme inhibition): 9.28 µM
- Ki ([9]; non-competitive model): 4.17 µM
- Most likely mode of inhibition [9]: Non-competitive
- α (alpha-value), mixed model enzyme inhibition [9]: 0.386
- Ki ([10]; competitive model): 2.12 µM
- Ki ([10]; mixed model enzyme inhibition): 9.2 µM
- Ki ([10]; non-competitive model): 8.59 µM
- Most likely mode of inhibition [10]: Non-competitive
- α (alpha-value), mixed model enzyme inhibition ([10]; listed as (D,L)-(−,+)-G-α-CNP): 0.904
- Fold-resistance compared to wild-type ([11]; Poly rC.dG [^3H]dGTP): 79 fold
- Fold-resistance compared to wild-type ([12]; Poly rC.dG [^3H]dGTP): 2.1 fold
- Fold-resistance compared to wild-type ([13]; Poly rC.dG [^3H]dGTP): 0.7 fold
- Fold-resistance compared to wild-type ([14]; Poly rC.dG [^3H]dGTP): 0.7 fold
- Fold-resistance compared to wild-type ([15]; Poly rC.dG [^3H]dGTP): 2.6 fold
- Fold-resistance compared to wild-type ([16]; Poly rC.dG [^3H]dGTP): 8.7 fold
- Fold-resistance compared to wild-type [17]: 2.3 fold
- Fold-resistance compared to wild-type ([18]; Poly rC.dG [^3H]dGTP): 0.9 fold
- Fold-resistance compared to wild-type ([19]; Poly rC.dG [^3H]dGTP): 3.1 fold
- Fold-resistance compared to wild-type ([20]; Poly rC.dG [^3H]dGTP): 19 fold
- Fold-resistance compared to wild-type ([21]; Poly rC.dG [^3H]dGTP): 8.7 fold
- Fold-resistance compared to wild-type ([22]; Poly rC.dG [^3H]dGTP): 39 fold
- Fold-resistance compared to wild-type ([23]; Poly rC.dG [^3H]dGTP): 6.1 fold
- Fold-resistance compared to wild-type ([24]; Poly rC.dG [^3H]dGTP): 5.2 fold
- Fold-resistance compared to wild-type ([25]; Poly rC.dG [^3H]dGTP): 1.1 fold
- Fold-resistance compared to wild-type ([26]; Poly rC.dG [^3H]dGTP): 1.6 fold
- Fold-resistance compared to wild-type ([27]; Poly rC.dG [^3H]dGTP): 5.2 fold

Structure (SMILES): Cn1c2ccccc2c2c1cc(C#N)c(=O)n2-c1ccc([N+](=O)[O-])cc1 [INDOPY]
- IC50 ([1]; read-out: IC50 HIV-1 RT, poly rA.dT, [^3H]dTTP): 0.26 ± 0.07 µM
- IC50 ([1]; read-out: IC50 HIV-1 RT, poly rC.dG, [^3H]dGTP): > 200 µM
- IC50 ([2]; read-out: IC50 HSV-1 DNA pol, [^3H]dGTP): > 100 µM
- IC50 ([2]; read-out: IC50 HSV-1 DNA pol, [^3H]dTTP): > 100 µM
- IC50 ([3]; read-out: IC50 HCMV DNA pol, [^3H]dGTP): > 100 µM
- IC50 ([3]; read-out: IC50 HCMV DNA pol, [^3H]dTTP): > 100 µM
- IC50 ([4]; read-out: IC50 α DNA pol, calf thymus DNA, [^3H]dGTP): > 100 µM
- IC50 ([5]; read-out: IC50 β DNA pol, calf thymus DNA, [^3H]dGTP): > 100 µM
- Fold-resistance compared to wild-type ([11]; Poly rA.dT [^3H]dTTP): 2.2 fold
- Fold-resistance compared to wild-type ([11]; Poly rI.dC [^3H]dCTP): 1.9 fold
- Fold-resistance compared to wild-type ([12]; Poly rA.dT [^3H]dTTP): 1.0 fold
- Fold-resistance compared to wild-type ([12]; Poly rI.dC [^3H]dCTP): 1.3 fold
- Fold-resistance compared to wild-type ([13]; Poly rA.dT [^3H]dTTP): 1.5 fold
- Fold-resistance compared to wild-type ([13]; Poly rI.dC [^3H]dCTP): 0.6 fold
- Fold-resistance compared to wild-type ([14]; Poly rI.dC [^3H]dCTP): 0.7 fold
- Fold-resistance compared to wild-type ([15]; Poly rA.dT [^3H]dTTP): 0.6 fold
- Fold-resistance compared to wild-type ([16]; Poly rA.dT [^3H]dTTP): 1.0 fold
- Fold-resistance compared to wild-type ([18]; Poly rA.dT [^3H]dTTP): 0.7 fold
- Fold-resistance compared to wild-type ([18]; Poly rI.dC [^3H]dCTP): 1.0 fold
- Fold-resistance compared to wild-type ([19]; Poly rA.dT [^3H]dTTP): 1.6 fold
- Fold-resistance compared to wild-type ([19]; Poly rI.dC [^3H]dCTP): 0.2 fold
- Fold-resistance compared to wild-type ([20]; Poly rI.dC [^3H]dCTP): ≥ 6.7 fold
- Fold-resistance compared to wild-type ([21]; Poly rI.dC [^3H]dCTP): > 6.7 fold
- Fold-resistance compared to wild-type ([28]; Poly rA.dT [^3H]dTTP): 1.1 fold
- Fold-resistance compared to wild-type ([28]; Poly rI.dC [^3H]dCTP): 0.6 fold
- Fold-resistance compared to wild-type ([22]; Poly rI.dC [^3H]dCTP): ≥ 6.7 fold
- Fold-resistance compared to wild-type ([23]; Poly rI.dC [^3H]dCTP): 1.0 fold
- Fold-resistance compared to wild-type ([24]; Poly rA.dT [^3H]dTTP): 3.9 fold
- Fold-resistance compared to wild-type ([25]; Poly rA.dT [^3H]dTTP): 0.6 fold
- Fold-resistance compared to wild-type ([25]; Poly rI.dC [^3H]dCTP): 1.1 fold
- Fold-resistance compared to wild-type ([26]; Poly rA.dT [^3H]dTTP): 1.0 fold
- Fold-resistance compared to wild-type ([26]; Poly rI.dC [^3H]dCTP): 0.4 fold
- Fold-resistance compared to wild-type ([27]; Poly rA.dT [^3H]dTTP): 1.3 fold
- Fold-resistance compared to wild-type ([27]; Poly rI.dC [^3H]dCTP): ≥ 6.7 fold
